For one experiment, the target named is MCL-1 (Homo sapiens, UniProt Q07820). Description: Protein-protein interaction assay MCL-1/Noxa BH3 peptide (MCL-1 assay), TR-FRET. In kind it is binding. The following applies: MBP-MCL-1 / Noxa BH3-derived peptide, median. The procedure, abridged:
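MBP-MCL-1 (1 nM final) was preincubated 10 min at 22 °C with compounds (11 concentrations, 0.1 nM–20 μM, duplicates) in Tris pH 7 buffer with NaCl, KF, Tween-20, DTT and BGG. After 1 h at 22 °C in the dark plus overnight at 4 °C, anti-MBP Eu-cryptate/streptavidin-XL665 TR-FRET was read; IC50 came from a 4-parameter fit.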
Background: TR-FRET usually uses a lanthanide donor and a delayed reading to cut background.

Another experiment has as its target T1, BCL-2 (Homo sapiens, UniProt P10415).
T1 construct: BCL-2 (amino acids 1-211, C-terminal fused to a hexahistidine (6×His) tag); purchased BPS Bioscience (San Diego, Calif., USA); host or cells: E. coli
The experiment is described as follows: Protein-protein interaction assay BCL-2/Bad BH3 peptide (BCL-2 assay), TR-FRET. Type of experiment: binding. The following applies: His-BCL-2 / Bad BH3-derived peptide, median. As for the experimental part:
Protein-Protein Interaction Assay: BCL-2/Bad BH3 Peptide (BCL-2 Assay)
The dose-dependent inhibition by the compounds described in this invention of the interaction between BCL-2 and the BH3 domain of Bad (both human) was determined using a steady state binding competition assay with time-resolved fluorescence energy transfer (TR-FRET) readout. For that purpose BCL-2 (amino acids 1-211, C-terminal fused to a hexahistidine (6×His) tag and a synthetic Bad BH3-derived peptide of sequence Biotin-PEG2-PEG2-NLWAAQRYGRELRR-Nle-SDEFVDSFKK-amide (SEQ ID NO: 2) served as protein receptor and tracer ligand respectively. The recombinant BCL-2 protein (expressed in E. coli) was purchased from BPS Bioscience (San Diego, Calif., USA). The Bad BH3-derived peptide can be obtained from e.g. Biosyntan (Berlin, Germany).
In the assay 11 different concentrations of each compound (0.1 nM, 0.33 nM, 1.1 nM, 3.8 nM. 13 nM, 44 nM, 0.15 μM, 0.51 μM, 1.7 μM, 5.9 μM and 20 μM) were typically measured as duplicates in the same microtiter plate. For that, 100-fold concentrated DMSO solutions were prepared by serial dilutions (1:3.4) of a 2 mM stock solution in a clear, 384-well microtiter plate (Greiner Bio-One, Frickenhausen, Germany). From there, 50 nl were transferred in a dark test plate (Greiner Bio-One. Frickenhausen, Germany). The assay was initiated by addition of 2 μl of a 2,5-fold concentrated His-BCL-2 solution (usually for a 1 nM end concentration in 5 μl reaction volume) in aqueous assay buffer [50 mM Tris/HCl pH 7, 100 mM sodium chloride (NaCl), 50 mM potassium fluoride (KF), 0.005% Tween-20, 2 mM DTT, 0.1% bovine gamma globulin (BGG)] to the compounds in the assay plate. This was followed by a 10-minute incubation step at 22° C. for pre-equilibration of the putative complex between His-BCL-2 and the compounds.
The mixture was incubated in the dark for one hour at 22° C. and then overnight at 4° C. The formation of BCL-2/Bad complexes was determined by measuring the resonance energy transfer of the anti-His-Eu-cryptate antibody to the streptavidin-XL665 present in the reaction. For that purpose, the fluorescence emission at 620 nm and 665 nm after excitation at 330-350 nm was measured in a TR-FRET measuring instrument, for instance a Rubystar or a Pherastar (both from BMG Lab Technologies. Offenburg, Germany) or a Viewlux (Perkin-Elmer). The ratio of the emission at 665 nm and at 622 nm was used as indicator of the amount of BCL-2/Bad complexes present.
The resulting data (ratio) were normalized, taking 0% inhibition as the mean value of control measurements (usually 32 data points) where all reagents were included. In this case 50 nl DMSO were used instead of compounds. A 100% inhibition corresponded to the mean value of control measurements (usually 32 data points) where all reagents except BCL-2 were included. IC50 values were determined by regression analysis based on a 4 parameter equation (minimum, maximum, IC50, Hill; Y=Max+(Min−Max)/(1+(X/IC50)^Hill) using the Screener Software (Genedata).

For the next experiment, the system named is SUDHL5. Description: Induction of caspase-3/7 activity (Caspase-Glo 3/7), SUDHL5. In kind it is cell-based. Particulars: caspase-3/7 induction, SUDHL5 cells, 3 h treatment, median. Summed up:
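Caspase-Glo 3/7 luminescence measured after 3 h compound exposure at 37 °C in SUDHL10 and SUDHL5 cells. EC50 values come from background-corrected signals, with curve bottom set to 1 and plateau set to maximal induction by the reference compound.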

Where a name gives a salt, the structure may show the parent alone.

MCL-1, sequence (Q07820 whole entry): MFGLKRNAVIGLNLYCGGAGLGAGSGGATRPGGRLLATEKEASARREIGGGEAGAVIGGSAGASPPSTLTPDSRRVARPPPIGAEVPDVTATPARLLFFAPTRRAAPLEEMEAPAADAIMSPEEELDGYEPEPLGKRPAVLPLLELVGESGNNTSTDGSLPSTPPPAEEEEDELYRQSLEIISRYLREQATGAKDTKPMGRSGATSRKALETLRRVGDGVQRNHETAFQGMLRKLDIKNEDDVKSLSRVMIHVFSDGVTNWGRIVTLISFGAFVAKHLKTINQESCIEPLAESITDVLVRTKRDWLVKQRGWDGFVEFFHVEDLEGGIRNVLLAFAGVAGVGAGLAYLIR
T1 sequence (P10415 1-211): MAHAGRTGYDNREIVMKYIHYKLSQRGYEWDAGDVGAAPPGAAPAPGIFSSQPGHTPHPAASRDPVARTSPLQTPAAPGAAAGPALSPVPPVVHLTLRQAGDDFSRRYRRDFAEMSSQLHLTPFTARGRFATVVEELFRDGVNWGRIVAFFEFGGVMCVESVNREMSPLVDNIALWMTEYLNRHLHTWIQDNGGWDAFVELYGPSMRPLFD

For the compound `CN1CCCn2c(C(=O)O)c(CCCOc3cccc4ccccc34)c3cccc(c32)-c2c(COc3ccc(N4CCN(S(C)(=O)=O)CC4)cc3)nn(C)c2C1` (single isomer, unassigned; enantiomer 1) [Example 1-46, (+)-7,9-dimethyl-11-({4-[4-(methylsulfonyl)piperazin-1-yl]phenoxy}methyl)-1-[3-(naphthalen-1-yloxy)propyl]-4,5,6,7,8,9-hexahydropyrazolo[3′,4′:7,8][1,5]diazecino[9,10,1-hi]indole-2-carboxylic Acid (Enantiomer 1)], the values for the IC50 at MCL-1 and at BCL-2 were 1.43 nM and 2340 nM, respectively. This compound registered an EC50 with SUDHL5 of 776 nM.
For `Cc1nn(C)c2c1-c1cccc3c(CCCOc4cccc5cc(F)ccc45)c(C(=O)O)n(c13)CCCCOC2` (single isomer, unassigned; enantiomer 1) [Example 019, 7-{3-[(6-fluoronaphthalen-1-yl)oxy]propyl}-1,3-dimethyl-1,10,11,12,13,15-hexahydropyrazolo[4′,3′:9,10][1,6]oxazacycloundecino[8,7,6-hi]indole-8-carboxylic Acid-N-ethylethanamine Salt (Enantiomer 1)], the IC50 at MCL-1 is 0.862 nM; at BCL-2, above 20000 nM. The midpoint of the response in the experiment with SUDHL5, the EC50, lay at 1520 nM.
`Cc1nn(C)c2c1-c1cccc3c(CCCOc4cccc5cc(Cl)ccc45)c(C(=O)O)n(c13)CCCCOC2` (single isomer, unassigned; enantiomer 1) [Example 041, 7-{3-[(6-chloronaphthalen-1-yl)oxy]propyl}-1,3-dimethyl-1,10,11,12,13,15-hexahydropyrazolo[4′,3′:9,10][1,6]oxazacycloundecino[8,7,6-hi]indole-8-carboxylic acid-N-ethylethanamine Salt (Enantiomer 1)]: the values for the IC50 against MCL-1 and on BCL-2 were 4.44 nM and above 20000 nM, respectively. Besides, in the experiment on SUDHL5, the EC50 came to 13100 nM.
`Cc1nn(C)c2c1-c1cccc3c(CCCOc4cccc5cc(F)ccc45)c(C(=O)O)n(c13)CCCOC2` (single isomer, unassigned; enantiomer 1) [Example 047, 1-{3-[(6-fluoronaphthalen-1-yl)oxy]propyl}-9,11-dimethyl-5,6,8,9-tetrahydro-4H-pyrazolo[4′,3′:8,9][1,5]oxazecino[7,6,5-hi]indole-2-carboxylic acid-N-ethylethanamine Salt (Enantiomer 1)]: the IC50 against MCL-1 was 2.86 nM; at BCL-2, above 20000 nM. A half-maximal response at SUDHL5 (EC50) required 2960 nM.
Consider `COCCn1nc2c(c1CN1CCOCC1)-c1cccc3c(CCCOc4cccc5ccccc45)c(C(=O)O)n(c13)CCCN(C)C2` (single isomer, unassigned; enantiomer 1) [Example 057, 10-(2-methoxyethyl)-7-methyl-11-(morpholin-4-ylmethyl)-1-[3-(naphthalen-1-yloxy)propyl]-4,5,6,7,8,10-hexahydropyrazolo[3′,4′:7,8][1,5]diazecino[9,10,1-hi]indole-2-carboxylic Acid (Enantiomer 1)], for which the IC50 against MCL-1 was 45.3 nM; on BCL-2 it was above 20000 nM. In the experiment with SUDHL5 (Homo sapiens, SU-DHL-5, 3 h), this compound returned an EC50 of 27900 nM.
Take `Cc1c2c(nn1CCN1CCOCC1)CN(C)CCCn1c(C(=O)O)c(CCCOc3cccc4ccccc34)c3cccc-2c31` (single isomer, unassigned; enantiomer 1) [Example 060, 7,11-dimethyl-10-[2-(morpholin-4-yl)ethyl]-1-[3-(naphthalen-1-yloxy)propyl]-4,5,6,7,8,10-hexahydropyrazolo[3′,4′:7,8][1,5]diazecino[9,10,1-hi]indole-2-carboxylic Acid (Enantiomer 1)]: the results for the IC50 against MCL-1 and at BCL-2 were 5.44 nM and above 20000 nM, respectively. In the experiment with SUDHL5, this compound showed an EC50 of 5130 nM.
On to `Cc1ccc2c(CCCOc3cccc4ccccc34)c(C(=O)O)n3c2c1-c1c(nn(C)c1C)CN(C)CCC3` (single isomer, unassigned; enantiomer 1) [Example 073, 7,10,11,12-tetramethyl-1-[3-(naphthalen-1-yloxy)propyl]-4,5,6,7,8,10-hexahydropyrazolo[3′,4′:7,8][1,5]diazecino[9,10,1-hi]indole-2-carboxylic Acid (Enantiomer 1)], for which the IC50 is 2.06 nM at MCL-1 and above 20000 nM on BCL-2. In the experiment on SUDHL5, this compound displayed an EC50 of 2120 nM.
Regarding `CCn1nc2c(c1C1CC1)-c1cccc3c(CCCOc4cccc5ccccc45)c(C(=O)O)n(c13)CCCCOC2` (single isomer, unassigned; enantiomer 1) [Example 082, 3-cyclopropyl-2-ethyl-7-[3-(naphthalen-1-yloxy)propyl]-2,10,11,12,13,15-hexahydropyrazolo[4′,3′:9,10][1,6]oxazacycloundecino[8,7,6-hi]indole-8-carboxylic acid-N-ethylethanamine Salt (Enantiomer 1)], the IC50 against MCL-1 is 4.37 nM; on BCL-2, above 20000 nM. This compound gave an EC50 in the experiment on SUDHL5 of 8690 nM.
In the case of `COCCn1nc2c(c1C1CC1)-c1cccc3c(CCCOc4cccc5ccccc45)c(C(=O)O)n(c13)CCCCOC2` (single isomer, unassigned; enantiomer 1) [Example 085, 3-Cyclopropyl-2-(2-methoxyethyl)-7-[3-(naphthalen-1-yloxy)propyl]-2,10,11,12,13,15-hexahydropyrazolo[4′,3′:9,10][1,6]oxazacycloundecino[8,7,6-hi]indole-8-carboxylic acid-N-ethylethanamine Salt (Enantiomer 1)], the IC50 against MCL-1 was 4.51 nM; against BCL-2 it was above 20000 nM. Further, a half-maximal response with SUDHL5 (EC50) required 3590 nM.
For the compound `Cc1c2c(nn1C1CC1)COCCCCn1c(C(=O)O)c(CCCOc3cccc4ccccc34)c3cccc-2c31` (single isomer, unassigned; enantiomer 1) [Example 093, 2-cyclopropyl-3-methyl-7-[3-(naphthalen-1-yloxy)propyl]-2,10,11,12,13,15-hexahydropyrazolo[4′,3′:9,10][1,6]oxazacycloundecino[8,7,6-hi]indole-8-carboxylic acid-N-ethylethanamine Salt (Enantiomer 1)], the IC50 at MCL-1 was 1.19 nM; against BCL-2 it was above 20000 nM. The compound further gave an EC50 with SUDHL5 of 2830 nM.
`COCCn1nc2c(c1C)-c1cccc3c(CCCOc4cccc5ccccc45)c(C(=O)O)n(c13)CCCCOC2` (single isomer, unassigned; enantiomer 1) [Example 107, 2-(2-methoxyethyl)-3-methyl-7-[3-(naphthalen-1-yloxy)propyl]-2,10,11,12,13,15-hexahydropyrazolo[4′,3′:9,10][1,6]oxazacycloundecino[8,7,6-hi]indole-8-carboxylic acid-N-ethylethanamine Salt (Enantiomer 1)]: the IC50 is 1.71 nM at MCL-1 and above 20000 nM at BCL-2. This compound also had an EC50 with SUDHL5 of 1470 nM.
For `CCc1c2c(nn1C)CN(C)CCCn1c(C(=O)O)c(CCCOc3cccc4ccccc34)c3ccc(C)c-2c31` (single isomer, unassigned; enantiomer 1) [Example 145, 11-Ethyl-7,10,12-trimethyl-1-[3-(1-naphthyloxy)propyl]-4,5,6,7,8,10-hexahydropyrazolo[3′,4′:7,8][1,5]diazecino[9,10,1-hi]indole-2-carboxylic acid-N-ethylethanamine Salt (Enantiomer 1)] the same measures were 1.17 nM, above 20000 nM and 889 nM.

For orientation: IC50 means the concentration needed to halve the response being measured. The low end stands for greater potency, the high end for weaker potency. The EC50 is the concentration needed to bring the measured effect to its halfway point. High values mean a less potent agent, low ones a more potent agent.

For the origin of these results see patent US10981932B2, “Macrocyclic indole derivatives” (Bayer Aktiengesellschaft, priority 2016, dated 2021).
